Square brackets hold non-standard residues; d marks the D form. Ends that are not written are not given here. Lys(Me2) = CN(C)CCCC[C@H](N)C(=O)O
Assays:
recombinant human KDM4A = target: T1, recombinant human KDM4A (Homo sapiens, UniProt O75164); experiment: Formaldehyde dehydrogenase (FDH)-coupled demethylation assay, Michaelis–Menten kinetics; format: biochemical; settings: peptide as substrate
T1 construct: recombinantly expressed as reported either in Escherichia coli (KDM2A1–557 25, KDM4A1–359 26); His6 (N); made in house; host or cells: Escherichia coli
T1 sequence (O75164 1-359): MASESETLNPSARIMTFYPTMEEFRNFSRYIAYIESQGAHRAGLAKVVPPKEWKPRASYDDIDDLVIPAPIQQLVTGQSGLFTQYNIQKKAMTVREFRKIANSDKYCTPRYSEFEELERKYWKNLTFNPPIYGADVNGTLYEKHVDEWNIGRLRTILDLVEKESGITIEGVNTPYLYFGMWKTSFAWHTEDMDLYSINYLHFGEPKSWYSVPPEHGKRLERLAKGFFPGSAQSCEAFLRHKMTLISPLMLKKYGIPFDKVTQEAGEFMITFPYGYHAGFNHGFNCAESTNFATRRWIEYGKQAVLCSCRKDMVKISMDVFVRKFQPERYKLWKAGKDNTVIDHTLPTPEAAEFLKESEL
Procedure: Kinetic parameters for KDM4 enzymes were determined by use of an FDH (formaldehyde dehydrogenase)/NAD^+‐coupled) assay for quantification of the formaldehyde reaction byproduct, as previously described 27. […] Specific activities were measured using a 100‐μM peptide. For Michaelis–Menten experiments, peptide concentrations were varied. Reactions were monitored using a PHERAstar FS plate reader (BMG Labtech, Ortenberg, Germany) with 355 nm excitation and 460 nm emission. Kinetic parameters were calculated from the reaction rate during the initial linear phase of formaldehyde production, which were used to calculate specific activities or fitted to Michaelis–Menten equations using […] PRISM (GraphPad Software, La Jolla, CA, USA).
Michaelis–Menten kinetics were then conducted with KDM4A. Samples containing KDM4A, 2OG, ascorbate, H1.4K26me3 peptide, NAD^+ and FDH were analysed over time and kinetic parameters were determined by recording the initial reaction rates of NADH production (corresponding to enzymatic production of formaldehyde) at varying peptide concentration.

KDM3A (KDM3A515–1317) = experiment: MALDI-TOF MS demethylation activity assay, KDM3A; format: biochemical, human; set-up: key: 🟢: Indicates that clear demethylation activity was observed; 🟡: Indicates that low level demethylation activity was observed (<10% conversion after 1 h); 🔴: Indicates no activity under the stated conditions (1 μM KDM, 10 μM peptide); 🟡*: *Indicates demethylation activity was only observed with 5 μM KDM; settings: peptide as substrate, 1 μM KDM, 10 μM peptide, 50 mM HEPES pH 7.5, Fe(II) 10 μM, ascorbate 100 μM, 2OG 200 μM, 1 mM TCEP, 1 h at 37 °C
Procedure: (§1) Recombinant proteins (1 μM) were incubated with peptides (10 μM, sequences are given in Table S1) in 50 mM HEPES, pH 7.5 with addition of Fe(II) ammonium sulfate (10 μM), sodium ascorbate (100 μM) and 2‐oxoglutaric acid (200 μM). Reactions with KDM3A and KDM7A also contained 1 mM tris(2‐carboxyethyl)phosphine hydrochloride. No enzyme reactions were included as negative controls. Reactions were incubated for 1 h at 37 °C before being quenched with 1 : 1 (v/v) methanol. Analysis was carried out by MALDI‐TOF MS (Bruker, Billerica, MA, USA), with demethylation observed as mass shifts of 14 Da.
(§2) The propensity of human JmjC KDMs to catalyse demethylation at H1.4K26 was investigated using recombinant forms of the catalytic domains of representatives of each human JmjC KDM subfamily (KDM2‐7) and fragment peptides (Table S1) 37. Three peptides with identical sequences, corresponding to residues 18–32 of histone H1.4 (H2N‐[…]‐CONH2), but containing either a N ^ε‐tri‐, di‐ or monomethyllysine at K26 were synthesised (Fig. 1B and Table S1). Activity assays monitoring JmjC KDM‐catalysed demethylation of the peptides were then carried out; samples were prepared containing each peptide, 2‐oxoglutarate (2OG), ferrous iron, ascorbate and individual representatives from each JmjC KDM subfamily (KDM2A 38, KDM3A 21, KDM4E 22, KDM5C 39, 40, KDM6B 41, KDM7A 42).

KDM4C (KDM4C1–359) = experiment: MALDI-TOF MS demethylation activity assay, KDM4C; format: biochemical, human; set-up: key: 🟢: Indicates that clear demethylation activity was observed; 🟡: Indicates that low level demethylation activity was observed (<10% conversion after 1 h); 🔴: Indicates no activity under the stated conditions (1 μM KDM, 10 μM peptide); 🟡*: *Indicates demethylation activity was only observed with 5 μM KDM; settings: peptide as substrate, 1 μM KDM, 10 μM peptide, 50 mM HEPES pH 7.5, Fe(II) 10 μM, ascorbate 100 μM, 2OG 200 μM, 1 h at 37 °C
Procedure: as §1
(§3) Given the activity observed with KDM4E and KDM7A, we decided to investigate the intra‐subfamily conservation of this demethylation activity. The demethylation activity of the other subfamily members (KDM4A‐D and KDM7B) was therefore screened. […] Note that as with H3K9, demethylation of the monomethylated H1.4K26 peptide was only observed with KDM4E, under the stated conditions 24.

KDM4A (KDM4A1–359) = experiment: MALDI-TOF MS demethylation activity assay, KDM4A; format: biochemical, human; set-up: key: 🟢: Indicates that clear demethylation activity was observed; 🟡: Indicates that low level demethylation activity was observed (<10% conversion after 1 h); 🔴: Indicates no activity under the stated conditions (1 μM KDM, 10 μM peptide); 🟡*: *Indicates demethylation activity was only observed with 5 μM KDM; settings: peptide as substrate, 1 μM KDM, 10 μM peptide, 50 mM HEPES pH 7.5, Fe(II) 10 μM, ascorbate 100 μM, 2OG 200 μM, 1 h at 37 °C
Procedure: as §1, §3

KDM4E (KDM4E1–337) = experiment: MALDI-TOF MS demethylation activity assay, KDM4E; format: biochemical, human; set-up: key: 🟢: Indicates that clear demethylation activity was observed; 🟡: Indicates that low level demethylation activity was observed (<10% conversion after 1 h); 🔴: Indicates no activity under the stated conditions (1 μM KDM, 10 μM peptide); 🟡*: *Indicates demethylation activity was only observed with 5 μM KDM; settings: peptide as substrate, 1 μM KDM, 10 μM peptide, 50 mM HEPES pH 7.5, Fe(II) 10 μM, ascorbate 100 μM, 2OG 200 μM, 1 h at 37 °C
Procedure: as §1, §2

KDM7A (KDM7A38–480) = experiment: MALDI-TOF MS demethylation activity assay, KDM7A; format: biochemical, human
Procedure: as §1, §2
(§4) N ^ε‐Trimethylated H3K4 binds to the plant homeobox domain of KDM7B, targeting the N ^ε‐dimethyllysine at H3K9 to the catalytic domain, and thus promoting demethylation 29, 44. To test whether similar targeting may occur with H1.4, promoting activity at H1.4K26, an H1.4 peptide was synthesised containing di‐N ^ε‐methyllysine at K26 and tri‐N ^ε‐methyllysine at K21 (i.e. at the equivalent position in the sequence to K4 in the H3 peptide, Fig. 1B, Table S1). Monomethylation at H1.4K21 has previously been observed by proteomic mass spectrometry 45. With the aim of enhancing activity, the enzyme concentration was increased from 1 μM to 5 μM, and time course analyses were conducted with both KDM7A and KDM7B, both with the new peptide (H1.4(18–32)K21me3K26me2) and the H1.4 peptides methylated only at K26 (Fig. 2B). […] Thus, it appears unlikely that N ^ε‐trimethylation at H1.4K21 promotes demethylation at H1.4K26 by KDM7B.

KDM5C (KDM5C1–765) = experiment: MALDI-TOF MS demethylation activity assay, KDM5C; format: biochemical, human; set-up: key: 🟢: Indicates that clear demethylation activity was observed; 🟡: Indicates that low level demethylation activity was observed (<10% conversion after 1 h); 🔴: Indicates no activity under the stated conditions (1 μM KDM, 10 μM peptide); 🟡*: *Indicates demethylation activity was only observed with 5 μM KDM; settings: peptide as substrate, 1 μM KDM, 10 μM peptide, 50 mM HEPES pH 7.5, Fe(II) 10 μM, ascorbate 100 μM, 2OG 200 μM, 1 h at 37 °C
Procedure: as §1, §2

KDM2A (KDM2A1–557) = experiment: MALDI-TOF MS demethylation activity assay, KDM2A; format: biochemical, human; set-up: key: 🟢: Indicates that clear demethylation activity was observed; 🟡: Indicates that low level demethylation activity was observed (<10% conversion after 1 h); 🔴: Indicates no activity under the stated conditions (1 μM KDM, 10 μM peptide); 🟡*: *Indicates demethylation activity was only observed with 5 μM KDM; settings: peptide as substrate, 1 μM KDM, 10 μM peptide, 50 mM HEPES pH 7.5, Fe(II) 10 μM, ascorbate 100 μM, 2OG 200 μM, 1 h at 37 °C
Procedure: as §1, §2

KDM7B (PHF8; KDM7B1–447) = experiment: MALDI-TOF MS demethylation activity assay, KDM7B (PHF8); format: biochemical, human; set-up: key to demethylation activity on methylated H1.4 peptide: 🟢: Indicates that clear demethylation activity was observed; 🟡: Indicates that low level demethylation activity was observed (<10% conversion after 1 h); 🔴: Indicates no activity under the stated conditions (1 μM KDM, 10 μM peptide); 🟡*: *Indicates demethylation activity was only observed with 5 μM KDM; settings: for demethylation at increased enzyme concentration (result in words): MALDI-TOF MS time course, KDM7B 5 μM, peptide 10 μM, 37 °C
Procedure: as §1, §3, §4

KDM6B (KDM6B1141–1590) = experiment: MALDI-TOF MS demethylation activity assay, KDM6B; format: biochemical, human; set-up: key: 🟢: Indicates that clear demethylation activity was observed; 🟡: Indicates that low level demethylation activity was observed (<10% conversion after 1 h); 🔴: Indicates no activity under the stated conditions (1 μM KDM, 10 μM peptide); 🟡*: *Indicates demethylation activity was only observed with 5 μM KDM; settings: peptide as substrate, 1 μM KDM, 10 μM peptide, 50 mM HEPES pH 7.5, Fe(II) 10 μM, ascorbate 100 μM, 2OG 200 μM, 1 h at 37 °C
Procedure: as §1, §2

KDM4B (KDM4B1–359) = experiment: MALDI-TOF MS demethylation activity assay, KDM4B; format: biochemical, human; set-up: key: 🟢: Indicates that clear demethylation activity was observed; 🟡: Indicates that low level demethylation activity was observed (<10% conversion after 1 h); 🔴: Indicates no activity under the stated conditions (1 μM KDM, 10 μM peptide); 🟡*: *Indicates demethylation activity was only observed with 5 μM KDM; settings: peptide as substrate, 1 μM KDM, 10 μM peptide, 50 mM HEPES pH 7.5, Fe(II) 10 μM, ascorbate 100 μM, 2OG 200 μM, 1 h at 37 °C
Procedure: as §1, §3

KDM4D (KDM4D1–359) = experiment: MALDI-TOF MS demethylation activity assay, KDM4D; format: biochemical, human; set-up: key: 🟢: Indicates that clear demethylation activity was observed; 🟡: Indicates that low level demethylation activity was observed (<10% conversion after 1 h); 🔴: Indicates no activity under the stated conditions (1 μM KDM, 10 μM peptide); 🟡*: *Indicates demethylation activity was only observed with 5 μM KDM; settings: peptide as substrate, 1 μM KDM, 10 μM peptide, 50 mM HEPES pH 7.5, Fe(II) 10 μM, ascorbate 100 μM, 2OG 200 μM, 1 h at 37 °C
Procedure: as §1, §3

[1] = concentration varied, FDH/NAD+-coupled fluorescence assay, 50 mM HEPES pH 7.5, 0.01% Tween-20, 2OG 200 μM, KDM4A, mean and standard deviation of three independent replicates, SD

Substance | K M (recombinant human KDM4A; [1]) | k cat (recombinant human KDM4A; [1]) | k cat/K M (recombinant human KDM4A; FDH-coupled assay, ratio of k cat (s^−1) and K M (μM)) | demethylation activity on methylated H1.4 peptide (KDM3A (KDM3A515–1317)) | demethylation activity on methylated H1.4 peptide (KDM4C (KDM4C1–359)) | demethylation activity on methylated H1.4 peptide (KDM4A (KDM4A1–359)) | demethylation activity on methylated H1.4 peptide (KDM4E (KDM4E1–337)) | demethylation at increased enzyme concentration (result in words) (KDM7A (KDM7A38–480); MALDI-TOF MS time course, KDM7A 5 μM, peptide 10 μM, 37 °C) | demethylation activity on methylated H1.4 peptide (KDM7A (KDM7A38–480); peptide as substrate, MALDI-TOF MS, 1 μM KDM, 10 μM peptide, 50 mM HEPES pH 7.5, Fe(II) 10 μM, ascorbate 100 μM, 2OG 200 μM, 1 mM TCEP, 1 h at 37 °C) | demethylation activity on methylated H1.4 peptide (KDM5C (KDM5C1–765)) | demethylation activity on methylated H1.4 peptide (KDM2A (KDM2A1–557)) | demethylation at increased enzyme concentration (result in words) (KDM7B (PHF8; KDM7B1–447)) | demethylation at increased enzyme concentration (result in words) (KDM7B (PHF8; KDM7B1–447); listed as H1.4K26me2) | demethylation activity on methylated H1.4 peptide (KDM7B (PHF8; KDM7B1–447); peptide as substrate, MALDI-TOF MS, 1 μM KDM (* = only with 5 μM KDM), 10 μM peptide, 50 mM HEPES pH 7.5, Fe(II) 10 μM, ascorbate 100 μM, 2OG 200 μM, 1 h at 37 °C) | demethylation activity on methylated H1.4 peptide (KDM6B (KDM6B1141–1590)) | demethylation activity on methylated H1.4 peptide (KDM4B (KDM4B1–359)) | demethylation activity on methylated H1.4 peptide (KDM4D (KDM4D1–359))
APATGGV-Kme3-KPHRYRP [H3(29–43)K36me3, histone H3 residues 29–43 peptide with Kme3 at K36, reference compound] | 66.8 ± 5.4 µM | 0.12 ± 0.004 s⁻¹ | 1900 M⁻¹ s⁻¹ | – | – | – | – | – | – | – | – | – | – | – | – | – | –
TPVKKKAR[Lys(Me2)]SAGAAK [H1.4(18–32)K26me2, peptide of residues 18–32 of histone H1.4 with N ε-dimethyllysine at K26] | – | – | – | 🔴 | 🟢 | 🟢 | 🟢 | clear evidence for demethylation | 🟡 (Indicates that low level demethylation activity was observed (<10% conversion after 1 h)) | 🔴 | 🔴 | demethylation of H1.4(18-32)K26me2 is observed | clear evidence for demethylation | 🟡* | 🔴 | 🟢 | 🟢

Source: paper PMC6220849, “Mechanistic and structural studies of KDM‐catalysed demethylation of histone 1 isotype 4 at lysine 26” (Febs Letters, 2018)
